Data set [1] deals with Enterovirus 71 (EV71) H strain. Put plainly: In vitro anti-EV71 activity (antiviral activity in RD cells, CellTiter-Glo). Format: cell-based. The note with it: for IC50: EV71 H strain, RD cells, 4 days, CellTiter-Glo, read-out: IC50; for in vitro anti-EV71 activity, in words: EV71, RD cells. Here is the method: According to the mass and molecular weight of the compound to be tested, the compound to be tested was dissolved to 100 mM (mmol/L) with DMSO.
Detection of Antiviral Activity:
(1) First, the compound to be tested was diluted to 800 μM with cell maintenance solution (DMEM+2% FBS, Gibco, catalog numbers: 11995-065, 1600-044), and three-fold gradient dilution was performed to prepare 10 concentrations in total. The diluted compound was added to a 96-well plate with white wall and transparent bottom, 50 μl per well. To both the cell control group and the virus control group, an equal volume of the cell maintenance solution was added.
(2) EV71 virus (purchased from ATCC) was taken out from the −80° C. refrigerator and equilibrated to room temperature.
(3) The virus seed was diluted with a virus growth solution (DMEM+2% FBS, Gibco, catalog numbers: 11995-065, 1600-044) to 100TCID50, the diluted virus seed was added to the 96-well plate of (1), with […] per well. The same volume of the virus growth solution was added to the cell control group.
(4) RD cells (purchased from ATCC) were inoculated at a concentration of 1*10^5/mL into the 96-well plate of (1), with 100 μL per well, to reach a final volume of 200 μL per well. The final concentration of drug was 0.25 times the initial concentration.
(5) RD cells were cultured at 37° C. for 4 days for testing.
(6) The Buffer of CellTiter-Glo® luminescent cell viability assay reagent (Promega) was mixed with the substrate in the dark to prepare a working solution.
(7) The culture medium in the plate was discarded, the plate was dried by patting, 100 μL of the detection reagent was added to each well, and the 96-well plate was shaken on an orbital shaker for 4 minutes to induce cell lysis. After keeping in the dark and subjecting to signal stabilization for 15 minutes, the chemiluminescence unit was detected by using MD5 microplate reader (Molecular Devices), and the plate reading program was performed according to the CellTiter-Glo preset program.
The inhibition rate-concentration curve was fitted to S-curve by using origin8.0 software to calculate the IC50 value of the compound to be tested.
(§1) The formula for calculating the inhibition rates of drug at different dilution degrees was as follows: inhibition rate (%)=(average value of cell control group−value of experimental group)/(average value of cell control group−minimum value of experimental group)*100
(§2) The inhibition rate-concentration curve was fitted to S-curve by using origin8.0 software, and the IC50 value of the compound to be tested was calculated. The same method was used to calculate the TD50 value, and the selection index SI=TD50/IC50 was calculated according to the half maximal inhibitory concentration IC50 and the median toxic dose TD50.

Another data set deals with RD cells. Put plainly: Detection of cytotoxicity in RD cells (CellTiter-Glo). It counts as cell-based. The settings on record: 4 days, CellTiter-Glo, median toxic dose. How it is done:
Detection of Cytotoxicity:
(1) The compound to be tested was diluted to a concentration of 400 μM with the cell maintenance solution, and 3-fold gradient dilution was carried out to obtain 10 concentrations in total.
(2) The diluted compound was added to a 96-well plate with white wall and transparent bottom, with 100 μL per well. An equal volume of the cell maintenance solution was added to the cell control group.
(3) RD cells were inoculated into the above 96-well plate at a concentration of 1*10^5/mL, with 100 μL per well, to reach a final volume of 200 μL per well, and the final concentration of drug was 0.5 times the pretreatment concentration.
(4) The RD cells were cultured at 37° C. for 4 days for testing.
(5) The Buffer of CellTiter-Glo® luminescent cell viability assay reagent was mixed with the substrate in the dark to prepare a working solution.
(6) The culture medium in the plate was discarded, the plate was dried by patting, 100 μL of the detection reagent was added to each well, and the 96-well plate was shaken on an orbital shaker for 4 minutes to induce cell lysis. After keeping in the dark and subjecting to signal stabilization for 15 minutes, the chemiluminescence unit was detected, and the plate reading program was performed according to the CellTiter-Glo preset program.
as §1, §2

Consider 19 compounds from patent US20220220106A1, “QUINOLINE COMPOUNDS AND PHARMACEUTICAL COMPOSITIONS AND USES THEREOF” (Academy of Military Medical Sciences, priority 2019, published 2022).

Read-outs that look alike come from different tables or passages of the source.

As a reminder, the IC50 is the concentration that gives 50% inhibition. Usually melting point stands for the temperature of the solid-liquid transition.

Take `CC(=O)/C=C/c1cnc2ccc(-c3cccc(Cl)c3)cc2c1Nc1cccc(C(F)(F)F)c1` [HTL-3-36, (E)-6-(3-chloro)phenyl-4-[3-(trifluoromethyl)phenyl]aminoquinoline-3-butenone]: the melting point was 182 to 183 °C. In data set [1] (Enterovirus A, 96 h), the IC50 is more than 200 µM. The compound further had a TD50 with RD cells of 4.65 ± 3.50 µM.
As to `CC(=O)/C=C/c1cnc2ccc(-c3cn[nH]c3)cc2c1Nc1cccc(C(F)(F)F)c1` [HTL-3-26, (E)-6-(1H-4-pyrazolyl)-4-[3-(trifluoromethyl)phenyl]aminoquinoline-3-butenone], the melting point lay in the range of 177 to 179 °C. Also, in data set [1], the “in vitro anti-EV71 activity, in words” value is “moderate anti-EV71 activity”. Moreover, in data set [1] (Enterovirus A, 96 h), the IC50 is 0.85 ± 0.03 µM. Moreover, the TD50 with RD cells worked out at 1.43 ± 1.62 µM.
Compound `O=c1oc2cnc3ccc(-c4cnc5ccccc5c4)cc3c2n1-c1cccc(C(F)(F)F)c1` [HTL-5-32, 8-(3-quinolyl)-1-[3-(trifluoromethyl)phenyl]oxazolo[5,4-c]quinolin-2(1H)-one] came in with a melting point of 242 to 244 °C. In addition, the IC50 in data set [1] (Enterovirus A, 96 h) was more than 200 µM. The compound also displayed a TD50 with RD cells of 68.88 ± 0.13 µM.
Taken in the same sequence, the figures for `N#CC/C=C/c1ccc2ncc3oc(=O)n(-c4cccc(C(F)(F)F)c4)c3c2c1` [HTL-6-31, (E)-8-(3-cyano-propenyl)-1-[3-(trifluoromethyl)phenyl]oxazolo[5,4-c]quinolin-2(1H)-one] were 177 to 179 °C, more than 200 µM and 9.20 ± 2.34 µM.
Regarding `O=c1oc2cnc3ccc(-c4ccoc4)cc3c2n1-c1cccc(C(F)(F)F)c1` [HTL-5-25, 8-(3-furyl)-1-[3-(trifluoromethyl)phenyl]oxazolo[5,4-c]quinolin-2(1H)-one], the melting point lay in the range of 276 to 277 °C. In addition, the IC50 in data set [1] (Enterovirus A, 96 h) was more than 200 µM. The compound further displayed a TD50 with RD cells of more than 200 µM.
The compound `CCCCC(=O)Nc1ccc(-c2ccc3ncc4oc(=O)n(-c5cccc(C(F)(F)F)c5)c4c3c2)cn1` [WSX-1-24, 8-[3-(6-valerylamino)pyridyl]-1-[3-(trifluoromethyl)phenyl]oxazolo[5,4-c]quinolin-2(1H)-one] displayed a melting point of 231 to 232 °C. Further, the IC50 in data set [1] (Enterovirus A, 96 h) was more than 200 µM. The compound further came in with a TD50 in the data set on RD cells of 4.27 ± 2.83 µM.
Taken in the same sequence, the figures for `COc1cncc(-c2ccc3ncc(/C=C/C(C)=O)c(Nc4cccc(C(F)(F)F)c4)c3c2)c1` [HTL-3-07, (E)-6-[3-(5-methoxy)pyridyl]-4-[3-(trifluoromethyl)phenyl]aminoquinoline-3-butenone] were 164 to 167 °C, more than 200 µM and more than 200 µM.
`Cc1ccc(Nc2ccc3ncc4ccc(=O)n(-c5cccc(C(F)(F)F)c5)c4c3c2)cn1` [HTL-6-19, 9-[3-(6-methylpyridyl)]imino-2-oxo-1-[3-(trifluoromethyl)phenyl]-1,2-dihydrobenzo[h][1,6]naphthyridine]: the melting point was 234 to 236 °C. In data set [1] (Enterovirus A, 96 h), the IC50 was more than 200 µM. Also, the TD50 in the data set with RD cells came to 22.62 ± 2.15 µM.
In the case of `O=c1oc2cnc3ccc(-c4ccc(Cl)cc4)cc3c2n1-c1cccc(C(F)(F)F)c1` [HTL-5-33, 8-(4-chloro)phenyl-1-[3-(trifluoromethyl)phenyl]oxazolo[5,4-c]quinolin-2(1H)-one], the melting point was in the range of 283 to 286 °C. The IC50 in data set [1] (Enterovirus A, 96 h) is more than 200 µM. The compound also showed a TD50 in the data set with RD cells of more than 200 µM.
Turning to `NC(=O)NC/C=C/c1ccc2ncc3ccc(=O)n(-c4cccc(C(F)(F)F)c4)c3c2c1` [HTL-7-25, (E)-9-[3-ureido-propenyl]-2-oxo-1-[3-(trifluoromethyl)phenyl]-1,2-dihydrobenzo[h][1,6]naphthyridine], the melting point was in the range of 150 to 151 °C. The “in vitro anti-EV71 activity, in words” value in data set [1] is “moderate inhibitory activity”. In addition, the IC50 in data set [1] (Enterovirus A, 96 h) is 0.41 ± 0.03 µM. Further, in the data set with RD cells, the TD50 was 4.42 ± 0.45 µM.
`CC(=O)/C=C/c1cnc2ccc(-c3ccc(N)nc3)cc2c1Nc1cccc(C(F)(F)F)c1` [HTL-2-34, (E)-6-[3-(6-amino)pyridyl]-4-[3-(trifluoromethyl)phenyl]aminoquinoline-3-butenone]: the melting point lay within 172 to 175 °C. In data set [1], the “in vitro anti-EV71 activity, in words” value was “moderate anti-EV71 activity”. In addition, the IC50 in data set [1] (Enterovirus A, 96 h) came out at 1.78 ± 0.03 µM. Also, the TD50 with RD cells is 4.99 ± 1.55 µM.
On to `CC(C)(C)OC(=O)/C=C/c1ccc2ncc3oc(=O)n(-c4cccc(C(F)(F)F)c4)c3c2c1` [HTL-6-35, (E)-8-(2-tert-butoxycarbonyl-vinyl)-1-[3-(trifluoromethyl)phenyl]oxazolo[5,4-c]quinolin-2(1H)-one], for which the melting point lay within 186 to 187 °C. Also, the IC50 in data set [1] (Enterovirus A, 96 h) is more than 200 µM. Further, the TD50 in the data set on RD cells is 76.02 ± 11.52 µM.
Compound `CCOc1ccc(-c2ccc3ncc4oc(=O)n(-c5cccc(C(F)(F)F)c5)c4c3c2)cc1` [HTL-5-27, 8-(4-ethoxy)phenyl-1-[3-(trifluoromethyl)phenyl]oxazolo[5,4-c]quinolin-2(1H)-one] registered a melting point of 254 °C. In addition, in data set [1] (Enterovirus A, 96 h), the IC50 is more than 200 µM. The compound further showed a TD50 with RD cells of more than 200 µM.
Turning to `O=c1oc2cnc3ccc(-c4ccc(C(F)(F)F)cc4)cc3c2n1-c1cccc(C(F)(F)F)c1` [HTL-5-29, 8-(4-trifluoromethyl)phenyl-1-[3-(trifluoromethyl)phenyl]oxazolo[5,4-c]quinolin-2(1H)-one], the melting point was 265 to 266 °C. Also, the IC50 in data set [1] (Enterovirus A, 96 h) is more than 200 µM. The compound also displayed a TD50 with RD cells of more than 200 µM.
On to `C=CCNc1ccc(-c2ccc3ncc4ccc(=O)n(-c5cccc(C(F)(F)F)c5)c4c3c2)cn1` [HTL-7-28, 9-[3-(6-allylamino)pyridyl]-2-oxo-1-[3-(trifluoromethyl)phenyl]-1,2-dihydrobenzo[h][1,6]naphthyridine], for which the melting point fell in the range of 142 to 146 °C. For the same compound, the IC50 in data set [1] (Enterovirus A, 96 h) was found to be 0.09 ± 0.01 µM. For the same compound, the TD50 in the data set on RD cells stood at 0.23 ± 0.01 µM.
With `CC(=O)/C=C/c1cnc2ccc(-c3cccs3)cc2c1Nc1cccc(C(F)(F)F)c1` [HTL-3-24, (E)-6-(2-thienyl)-4-[3-(trifluoromethyl)phenyl]aminoquinoline-3-butenone], the melting point was 181 to 185 °C. In data set [1] (Enterovirus A, 96 h), the IC50 was more than 200 µM. The same compound registered a TD50 in the data set on RD cells of 1.35 ± 1.16 µM.
Taken in the same sequence, the figures for `CC(=O)/C=C/c1cnc2ccc(-c3ccc(C(F)(F)F)cc3)cc2c1Nc1cccc(C(F)(F)F)c1` [HTL-3-18, (E)-6-[4-(trifluoromethyl)phenyl]-4-[3-(trifluoromethyl)phenyl]aminoquinoline-3-butenone] were 189 to 191 °C, more than 200 µM and more than 200 µM.
In the case of “(E)-6-[3-(N-6-benzyloxyamido)pyridyl]-4-[3-(trifluoromethyl)phenyl]aminoquinoline-3-butenone [HTL-7-22]”, in data set [1], the IC50 was more than 200 µM. For the same compound, in the data set on RD cells, the TD50 is 9.4 ± 8.0 µM.
As to `O=c1ccc2cnc3ccc(Nc4ccc(C(F)(F)F)cc4)cc3c2n1-c1cccc(C(F)(F)F)c1` [HTL-6-16, 9-[4-(trifluoromethyl)phenyl]imino-2-oxo-1-[3-(trifluoromethyl)phenyl]-1,2-dihydrobenzo[h][1,6]naphthyridine], the IC50 in data set [1] (Enterovirus A, 96 h) was more than 200 µM. In addition, the TD50 in the data set on RD cells is 7.06 ± 0.23 µM.
